Test results: ChEMBL document CHEMBL4699433, “Rational design, synthesis and testing of novel tricyclic topoisomerase inhibitors for the treatment of bacterial infections part 2” (RSC Med Chem, 2020)
Converted amounts (≈) assume the structure as drawn.

Columns and labels:
Staphylococcus aureus [1] = test: Antibacterial activity against wild type methicillin-sensitive Staphylococcus aureus ATCC 29213 assessed as reduction in bacterial growth by CLSI based broth microdilution method; type: functional
Streptococcus pneumoniae = test: Antibacterial activity against Streptococcus pneumoniae ATCC 49619 assessed as reduction in bacterial growth by CLSI based broth microdilution method; type: functional
Escherichia coli = test: Antibacterial activity against Escherichia coli ATCC 25922 assessed as reduction in bacterial growth by CLSI based broth microdilution method; type: functional
Haemophilus influenzae = test: Antibacterial activity against Haemophilus influenzae ATCC 49247 assessed as reduction in bacterial growth by CLSI based broth microdilution method; type: functional
Staphylococcus aureus [2] = test: Antibacterial activity against methicillin-resistant Staphylococcus aureus N315 NRS70 assessed as reduction in bacterial growth by CLSI based broth microdilution method; type: functional
Staphylococcus aureus [3] = test: Antibacterial activity against COL-resistant, methicillin-resistant Staphylococcus aureus NRS100 assessed as reduction in bacterial growth by CLSI based broth microdilution method; type: functional
Staphylococcus aureus [4] = test: Antibacterial activity against AMG-, QAC-, TMP- resistant methicillin- resistant Staphylococcus aureus NRS106 assessed as reduction in bacterial growth by CLSI based broth microdilution method; type: functional
Staphylococcus aureus [5] = test: Antibacterial activity against MUP resistant (RN4220 + pGO400), methicillin-resistant Staphylococcus aureus NRS107 assessed as reduction in bacterial growth by CLSI based broth microdilution method; type: functional
Staphylococcus aureus [6] = test: Antibacterial activity against AMG-resistant, methicillin-resistant Staphylococcus aureus NRS108 assessed as reduction in bacterial growth by CLSI based broth microdilution method; type: functional
Staphylococcus aureus [7] = test: Antibacterial activity against CA-MRSA ERY-, TET-resistant, FQ Int resistant (USA300 LAC) Staphylococcus aureus NRS384 assessed as reduction in bacterial growth by CLSI based broth microdilution method; type: functional
Staphylococcus aureus [8] = test: Antibacterial activity against Staphylococcus aureus ATCC 43300 assessed as reduction in bacterial growth by CLSI based broth microdilution method; type: functional
Staphylococcus aureus [9] = test: Antibacterial activity against FQ-resistant methicillin-resistant Staphylococcus aureus NRS74 assessed as reduction in bacterial growth by CLSI based broth microdilution method; type: functional
Staphylococcus aureus [10] = test: Antibacterial activity against AMG- and TET-resistant (Mu50) GyrA (S84L,E409L), GrlA (S80F), methicillin-resistant Staphylococcus aureus NRS1 assessed as reduction in bacterial growth by CLSI based broth microdilution method; type: functional
Staphylococcus aureus [11] = test: Antibacterial activity against LZD-resistant, methicillin-resistant Staphylococcus aureus NRS127 assessed as reduction in bacterial growth by CLSI based broth microdilution method; type: functional
Staphylococcus aureus [12] = test: Antibacterial activity against Staphylococcus aureus VRS1 assessed as reduction in bacterial growth by CLSI based broth microdilution method; type: functional
Staphylococcus aureus [13] = test: Antibacterial activity against FQ-resistant, methicillin-resistant Staphylococcus aureus NRS482 assessed as reduction in bacterial growth by CLSI based broth microdilution method; type: functional
Staphylococcus aureus [14] = test: Antibacterial activity against LZD-resistant methicillin-resistant Staphylococcus aureus NRS271 assessed as reduction in bacterial growth by CLSI based broth microdilution method; type: functional
Staphylococcus aureus [15] = test: Antibacterial activity against VAN resistant methicillin- resistant Staphylococcus aureus VRS8 assessed as reduction in bacterial growth by CLSI based broth microdilution method; type: functional
Enterococcus faecalis = test: Antibacterial activity against wild type Enterococcus faecalis ATCC 29212 assessed as reduction in bacterial growth by CLSI based broth microdilution method; type: functional
[16] = test system: Staphylococcus epidermidis; test: Antibacterial activity against wild type Staphylococcus epidermidis ATCC 12228 assessed as reduction in bacterial growth by CLSI based broth microdilution method; type: functional
[17] = test system: Staphylococcus epidermidis; test: Antibacterial activity against MRSE AMG-, ERY-resistant Staphylococcus epidermidis NRS101 assessed as reduction in bacterial growth by CLSI based broth microdilution method; type: functional
Enterococcus faecium [18] = test: Antibacterial activity against wild type Enterococcus faecium ATCC 19434 assessed as reduction in bacterial growth by CLSI based broth microdilution method; type: functional
Enterococcus faecium [19] = test: Antibacterial activity against VAN-resistant Enterococcus faecium ATCC 700221 assessed as reduction in bacterial growth by CLSI based broth microdilution method; type: functional
Streptococcus pyogenes = test: Antibacterial activity against wild type Streptococcus pyogenes ATCC 19615 assessed as reduction in bacterial growth by CLSI based broth microdilution method; type: functional
Neisseria gonorrhoeae [20] = test: Antibacterial activity against wild-type Neisseria gonorrhoeae ATCC 49226 assessed as reduction in bacterial growth by agar dilution method; type: functional
Neisseria gonorrhoeae [21] = test: Antibacterial activity against wild type Neisseria gonorrhoeae ATCC 700825 assessed as reduction in bacterial growth by agar dilution method; type: functional
[22] = Cytotoxicity against human HepG2 cells; type: cell-based
[23] = Protein binding in human plasma assessed as free fraction; type: ADME, cell-free
[24] = Intrinsic clearance in human hepatocytes assessed per 10^6 cells; type: ADME, cell-based, Hepatocyte; settings: read-out: CLH
[25] = Efflux ratio of permeability in human Caco2 cells; type: ADME, cell-based; settings: Caco-2
Cytochrome P450 1A2 = Cytochrome P450 1A2 (Homo sapiens, UniProt P05177); test: Inhibition of CYP1A2 (unknown origin); type: ADME
Cytochrome P450 2C9 = Cytochrome P450 2C9 (Homo sapiens, UniProt P11712); test: Inhibition of CYP2C9 (unknown origin); type: ADME
Cytochrome P450 2C19 = Cytochrome P450 2C19 (Homo sapiens, UniProt P33261); test: Inhibition of CYP2C19 (unknown origin); type: ADME
Cytochrome P450 2D6 = Cytochrome P450 2D6 (Homo sapiens, UniProt P10635); test: Inhibition of CYP2D6 (unknown origin); type: ADME
Cytochrome P450 3A4 = Cytochrome P450 3A4 (Homo sapiens, UniProt P08684); test: Inhibition of CYP3A4 (unknown origin); type: ADME
[26] = Kinetic solubility of compound at pH 7.4; type: physicochemical; settings: buffer, read-out: Kinetic_solubility
[27] = biological target: Voltage-gated inwardly rectifying potassium channel KCNH2 (Homo sapiens, UniProt Q12809); test: Inhibition of human ERG by patch clamp assay
[28] = biological target: Sodium channel protein type 5 subunit alpha (Homo sapiens, UniProt Q14524); test: Inhibition of Nav1.5 (unknown origin) by patch clamp assay
[29] = biological target: Voltage-dependent L-type calcium channel subunit alpha-1C (Homo sapiens, UniProt Q13936); test: Inhibition of Cav1.2 (unknown origin) by patch clamp assay
TK6 [30] = test: Genotoxicity in human TK6 cells at 200 uM in absence of S9 fraction by BlueScreen assay; type: toxicity, cell-based; settings: tk6, 200 µM
TK6 [31] = test: Genotoxicity in human TK6 cells at 200 uM in presence of S9 fraction by BlueScreen assay; type: toxicity, cell-based; settings: s9, 200 µM
[32] = Apparent permeability in human Caco2 cells; type: ADME, cell-based; settings: Caco-2
Staphylococcus aureus [33] = test: Antibacterial activity against Staphylococcus aureus clinical isolate assessed as reduction in bacterial growth by CLSI based broth microdilution method; type: functional
DNA gyrase = DNA gyrase (Staphylococcus aureus, UniProt P0A0K8+P20831); test: Inhibition of Staphylococcus aureus DNA gyrase using relaxed pBR322 as substrate incubated for 30 mins by ethidium bromide staining based gel electrophoresis analysis; type: protein-complex assay
Topoisomerase IV = Topoisomerase IV (Staphylococcus aureus, UniProt P0C1S7+P0C1U9); test: Inhibition of Staphylococcus aureus topoisomerase IV using kDNA as substrate incubated for 30 mins by ethidium bromide staining based gel electrophoresis analysis; type: protein-complex assay

Cc1nc2c(=O)n(C3CC3)c3c(Cl)c(N4CC[C@@H]([C@H](C)N)C4)c(F)cc3c2o1
MIC (Staphylococcus aureus [1]): 0.06 µg/mL (≈ 0.148 µM) | MIC (Streptococcus pneumoniae): 0.015 µg/mL (≈ 0.037 µM) | MIC (Escherichia coli): 0.5 µg/mL (≈ 1.23 µM) | MIC (Haemophilus influenzae): 1 µg/mL (≈ 2.47 µM) | MIC (Staphylococcus aureus [2]): 0.06 µg/mL (≈ 0.148 µM) | MIC (Staphylococcus aureus [3]): 0.12 µg/mL (≈ 0.296 µM) | MIC (Staphylococcus aureus [4]): 0.12 µg/mL (≈ 0.296 µM) | MIC (Staphylococcus aureus [5]): 0.12 µg/mL | MIC (Staphylococcus aureus [6]): 0.12 µg/mL (≈ 0.296 µM) | MIC (Staphylococcus aureus [7]): 0.12 µg/mL (≈ 0.296 µM) | MIC (Staphylococcus aureus [8]): 0.12 µg/mL (≈ 0.296 µM) | MIC (Staphylococcus aureus [9]): 0.12 µg/mL (≈ 0.296 µM) | MIC (Staphylococcus aureus [10]): 0.25 µg/mL (≈ 0.617 µM) | MIC (Staphylococcus aureus [11]): 0.5 µg/mL (≈ 1.23 µM) | MIC (Staphylococcus aureus [12]): 0.5 µg/mL (≈ 1.23 µM) | MIC (Staphylococcus aureus [13]): 0.12 µg/mL (≈ 0.296 µM) | MIC (Staphylococcus aureus [14]): 0.5 µg/mL (≈ 1.23 µM) | MIC (Staphylococcus aureus [15]): 0.5 µg/mL (≈ 1.23 µM) | MIC (Enterococcus faecalis): 0.12 µg/mL (≈ 0.296 µM) | MIC [16]: 0.06 µg/mL (≈ 0.148 µM) | MIC [17]: 1 µg/mL (≈ 2.47 µM) | MIC (Enterococcus faecium [18]): 8 µg/mL (≈ 19.8 µM) | MIC (Enterococcus faecium [19]): 8 µg/mL (≈ 19.8 µM) | MIC (Streptococcus pyogenes): 0.015 µg/mL (≈ 0.037 µM) | MIC (Neisseria gonorrhoeae [20]): 0.12 µg/mL (≈ 0.296 µM) | MIC (Neisseria gonorrhoeae [21]): 0.03 µg/mL (≈ 0.0741 µM) | CC50 [22]: 32 µg/mL (≈ 79 µM) | fraction unbound [23]: 0.244 | hepatocyte CLint [24]: 3 µL/min/1e6 cells | efflux ratio [25]: 2.2 | IC50 (Cytochrome P450 1A2): 30 µM | IC50 (Cytochrome P450 2C9): 16.4 µM | IC50 (Cytochrome P450 2C19): 30 µM | IC50 (Cytochrome P450 2D6): 30 µM | IC50 (Cytochrome P450 3A4): 17.5 µM | solubility kinetic [26]: > 100 µM | IC50 [27]: 28.7 µM | IC50 [28]: 21.5 µM | IC50 [29]: 93.6 µM | Activity (TK6 [30]): Non-Toxic | Activity (TK6 [31]): Toxic | Papp [32]: 20.7 ×10⁻⁶ cm/s | MIC90 (Staphylococcus aureus [33]): 0.5 µg/mL (≈ 1.23 µM) | IC50 (DNA gyrase): 1.82 µM | IC50 (Topoisomerase IV): 6.1 µM
